{"source": "patent US20060035904A1", "about": "“Antineoplastic combinations” (Wyeth, priority 2001, published 2006)", "key": {"[1]": {"tested_on": "histologically diverse tumor cells", "details": "cited from earlier work"}, "[2]": {"tested_on": "human tumor xenografts of diverse histological types", "details": "cited from earlier work"}, "orthotopic glioma": {"tested_on": "orthotopic glioma", "details": "nude mice; cited from earlier work"}, "[3]": {"tested_on": "human glioblastoma cell line", "details": "in vitro; cited from earlier work"}, "human pancreatic tumors": {"tested_on": "human pancreatic tumors", "details": "several tumors, nude mice; cited from earlier work"}, "breast cancer lines": {"tested_on": "breast cancer lines", "details": "one of two lines studied; cited from earlier work"}, "[4]": {"tested_on": "human colon (GC3) xenograft", "assay": "human colon (GC3) mouse xenograft test procedure", "type": "in vivo, mice", "details": "gemcitabine on days 1, 4, 8 in cycle 1 only; CCI-779 daily x5 for 2 consecutive weeks every 21 days, 3 cycles", "protocol": "Female CBA/CaJ mice (Jackson Laboratories, Bar Harbor, Me.), 4 weeks of age, were immune-deprived by thymectomy, followed 3 weeks later by whole-body irradiation (1200 cGy) using a ^137Cs source. Mice received 3×10^6 nucleated bone marrow cells within 6-8 h of irradiation. Tumor pieces of approximately 3 mm^3 were implanted in the space of the dorsal lateral flanks of the mice to initiate tumor growth. Tumor-bearing mice were randomized into groups of seven prior to initiating therapy. Mice bearing tumors each received drug when tumors were approximately 0.20-1 cm in diameter. Tumor size was determined at 7-day intervals using digital Vernier calipers interfaced with a computer. Tumor volumes were calculated assuming tumors to be spherical using the formula [(π/6)×d^3], where d is the mean diameter. CCI-779 was given on a schedule of 5 consecutive days for 2 weeks with this cycle repeated every 21 days for 3 cycles. […] The schedule of the other chemotherapy drug for each study was as follows: Gemcitabine on days 1, 4, 8 in cycle 1 only. […] In this test procedure, CCI-779 was given daily 5 for 2 consecutive weeks every 21 days for 3 cycles and gemcitabine given on days 1, 4, and 8 in the first cycle only."}, "mTOR": {"biological_target": "mTOR (Homo sapiens, UniProt P42345+P62942)", "assay": "Western blot of p70s6 kinase serine389 phosphorylation in growth factor stimulated cells", "type": "cell-based", "protocol": "Cell lines were grown in optimal basal medium supplemented with 10% fetal bovine serum and penicillin/treptomycin. For phosphorylation studies, cells were subcultured in 6-well plates. After the cells have completely attached, they were serum-starved. Treatment with mTOR inhibitors ranged from 2 to 16 hours. After drug treatment, the cells were rinsed once with PBS (phosphate buffered saline without Mg^2+ and Ca^2+) and then lysed in 150-200 μl NuPAGE LDS sample buffer per well. The lysates were briefly sonicated and then centrifuged for 15 minutes at 14000 rpm. Lysates were stored at minus −80° C. until use.\nThe test procedure can also be run by incubating the cells in growth medium overnight, after they have completely attached.\n1) Prepare total protein samples by placing 22.5 μl of lysate per tube and then add 2.5 μl NuPAGE sample reducing agent. Heat samples at 70° C. for 10 minutes. Electrophorese using NuPAGE gels and NuPAGE SDS buffers.\n2) Transfer the gel to a nitrocellulose membrane with NuPAGE transfer buffer. The membrane is blocked for 1 hour with blocking buffer (Tris buffered saline with 0.1% Tween and 5% nonfat-milk). Rinse membranes 2× with washing buffer (Tris buffered saline with 0.1% Tween).\n3) Blots/membranes are incubated with the Phospho-p70 S6 Kinase (Thr^389) primary antibody (1:1000) in blocking buffer overnight at 4° C. in a rotating platform. […]"}}, "note": "Where a name gives a salt, the structure may show the parent alone."}
{"molecule": "CO[C@H]1C[C@@H]2CC[C@@H](C)[C@@](O)(O2)C(=O)C(=O)N2CCCC[C@H]2C(=O)O[C@H]([C@H](C)C[C@@H]2CC[C@@H](OC(=O)C(C)(CO)CO)[C@H](OC)C2)CC(=O)[C@H](C)/C=C(\\C)[C@@H](O)[C@@H](OC)C(=O)[C@H](C)C[C@H](C)/C=C/C=C/C=C/1C", "note": "[CCI-779, rapamycin 42-ester with 3-hydroxy-2-(hydroxymethyl)-2-methylpropionic acid]", "values": [{"measurement": "sensitivity of tumor cell lines in vitro", "setting": "[1]; CNS cancer, leukemia (T-cell), breast cancer, prostate cancer and melanoma lines", "value": "among the most sensitive"}, {"measurement": "growth of tumor cells in vitro", "setting": "[1]; a number of histologically diverse tumor cells", "value": "inhibit the growth"}, {"measurement": "cell cycle effect", "setting": "[1]", "value": "arrested cells in the G1 phase"}, {"measurement": "sensitivity of gliomas in vivo", "setting": "[2]; gliomas", "value": "particularly sensitive"}, {"measurement": "activity against human tumor xenografts", "setting": "[2]; nude mice, diverse histological types", "value": "has activity"}, {"measurement": "activity in orthotopic glioma model", "setting": "orthotopic glioma", "value": "active"}, {"measurement": "growth factor (platelet-derived)-induced stimulation", "setting": "[3]", "value": "markedly suppressed"}, {"measurement": "growth of human pancreatic tumors", "setting": "human pancreatic tumors", "value": "inhibited"}, {"measurement": "growth of breast cancer lines in vivo", "setting": "breast cancer lines", "value": "inhibited"}]}
{"molecule": "Nc1ccn([C@@H]2O[C@H](CO)[C@@H](O)C2(F)F)c(=O)n1", "note": "[gemcitabine, 2′-deoxy-2′,2′-difluorocytidine monohydrochloride ((beta)-isomer)]", "values": [{"measurement": "tumor regression in the first cycle", "setting": "[4]", "value": "tumor regression seen in the first cycle"}]}
{"molecule": "CO[C@H]1C[C@@H]2CC[C@@H](C)[C@@](O)(O2)C(=O)C(=O)N2CCCC[C@H]2C(=O)O[C@H]([C@H](C)C[C@@H]2CC[C@@H](O)[C@H](OC)C2)CC(=O)[C@H](C)/C=C(\\C)[C@@H](O)[C@@H](OC)C(=O)[C@H](C)C[C@H](C)/C=C/C=C/C=C/1C", "note": "[rapamycin]", "values": [{"measurement": "phosphorylation of serine389 of p70s6 kinase", "setting": "mTOR", "value": "completely blocks"}]}
